Assays:
[1] = target: eukaryotic translation initiation factor 4E (eIF4E) (Mus musculus, UniProt P63073); assay: pyrene-probe fluorescent competitive-binding assay (PyFLINT-B) for cap analog-eIF4E; conditions: for Kd: pyrene-based high-throughput competition assay, 30 °C, KD calculated from EC50, read-out: KD Cap-eIF4E ± SD; for EC50: Table S2; for effect of the N7 substituent on eIF4E binding (in words): compared to m^7GpppG / 1a or unmodified counterpart
Description: (§1) High affinity for eIF4E is a desirable feature of cap analogs designed for modulating translation, either as small molecules or as a part of mRNA. Thus, we studied how different substituents at the N7-position affected eIF4E-cap interaction. To this end, we first determined the affinity of m^7GpppG and Bn^7GpppG (1a) using time-synchronized fluorescence quenching titration, a very precise and well-established, but low-throughput method. Next, to evaluate the whole set of the synthesized compounds (1a–1r), we used a high-throughput competitive-binding assay based on a pyrene-labeled fluorescent probe. From this assay we determined relative affinities of the compounds represented by half-effective concentrations (EC50) (Figure 3A–C), which were then used to calculate dissociation constant (KD) values for cap analog–eIF4E complexes using previously reported equations (Table 2, Figure 3D).
To determine the dissociation constants of the library of N7-benzylated dinucleotide 5′ cap analogs for translation initiation factor 4E, a fluorescent competitive-binding assay (PyFLINT-B) was applied as previously described. The experiments were performed on a Synergy™ H1 plate reader in 96-well, black, non-binding assay plates. Each well contained an appropriate buffer (50 mM Hepes/KOH pH 7.2, 100 mM KCl and 0.5 mM EDTA), pyrene probe m^7Gp5C4Py (10 nM), substrate (in half-logarithmic dilutions from 850 μM to 0.03 μM for compound 1m and from 100 μM to 0.003 μM for m^7GpppG and the rest of the compounds) and protein eIF4E (75 nM). The m^7Gp5C4Py was synthesized as describer earlier. The pyrene probe was dissolved in water and concentration was determined spectrometrically at 345 nm using the extinction coefficient (21,000 M^−1 cm^−1). The eIF4E protein was centrifuged after defrosting (5 min, 4 °C, 10k rcf) and its concentration was determined spectrometrically at 280 nm using the extinction coefficient (52,940 M^−1 cm^−1). The reaction mixtures were preincubated (15 min, 300 rpm, 30 °C). All measurements were performed at 30 °C and the fluorescence detection at 345 nm excitation and 378 nm emission was recorded.
To determine EC50 values, GraphPad Prism 9.1.2 software was used. To fit the curves to the obtained data we used the following formula:(1) Y=Bottom+ Top−Bottom/1+ X/EC50 where: X, cap analog (ligand) concentration; EC50, concentration of the cap analog resulting in half-maximal response from the fluorescent probe–protein complex; Bottom, minimal signal from the negative control, which contains only the free probe; Top, maximal signal from the positive control, the mixture of the protein and the fluorescent probe.
The dissociation constants KD were then calculated using the equation described by Nikolovska-Coleska et al.:(2) KD=EC50−Pt+PL50KD_probe/L50+1/L50/KD_probe+P0/KD_probe+1 where: EC50, concentration of the cap analog resulting in half-maximal response from the fluorescent probe–protein complex; [Pt], total protein concentration; [PL]50, concentration of the probe–protein complex at 50% inhibition; KD_probe, dissociation constant of the complex between the fluorescent probe and the protein; [L]50, probe concentration at 50% inhibition; [P]0, free protein concentration at 0% inhibition.

[2] = tested on: A549 cells; assay: translational efficiency of mRNAs capped with the analogs in A549 cells (Gaussia luciferase); format: cell-based
Experimental: Finally, we tested the properties of arylmethyl cap analogs as reagents for co-transcriptional mRNA capping. […] Here, we sought to evaluate the translational properties of mRNAs capped with N7-arylmethyl analogs in cultured cells. To that end, the translation properties of transcripts capped with selected analogs were assessed in A549 cells. In vitro transcribed mRNAs encoding Gaussia luciferase, capped with compounds 1a–1k, 1m–1n, and 1p–1r or with reference analogues m^7GpppG and ARCA (m^7GmpppG), were purified via RP HPLC, transfected into A549 cells, and the protein activity (luminescence) was measured using a reporter assay at 72 h post-transfection. The total amount of protein produced over 72 h from each capped RNA was normalized to m^7GpppG RNA (Figure 6 and Figure S4). […] Namely, replacing the N7-methyl group with a benzyl moiety (1a) increased protein production over fivefold in A549 cells compared to m^7GpppG-capped mRNA (Figure 6).
The influence of N7-arylmethylated dinucleotide 5′ cap analogues on the translational properties of HPLC-purified IVT mRNA is shown in Figure S4, Measurements are total protein produced over 72 h by A549 cells transfected with capped mRNAs. Each plot in Figure S4 represents a single experiment consisting of three independent transfections of the cells at the same passage. Bars show mean value normalized to […] ± SD. In the main manuscript, all nine data points from three different cell passages were combined to present cumulative protein expression.

[3] = target: eIF4E (Mus musculus, UniProt P63073); assay: time-synchronized fluorescence quenching titration with eIF4E; format: binding; conditions: 50 mM Hepes pH 7.2, 134.5 mM KCl, 20 °C, read-out: KD Cap-eIF4E ± SD (value in brackets) (converted)
Description: as §1

[4] = tested on: translation in vitro (RRL); parameters: method as in PMID 15317978; conditions: cap incorporated into mRNA; cited from earlier work

Sequence of eukaryotic translation initiation factor 4E (eIF4E) (P63073 whole entry): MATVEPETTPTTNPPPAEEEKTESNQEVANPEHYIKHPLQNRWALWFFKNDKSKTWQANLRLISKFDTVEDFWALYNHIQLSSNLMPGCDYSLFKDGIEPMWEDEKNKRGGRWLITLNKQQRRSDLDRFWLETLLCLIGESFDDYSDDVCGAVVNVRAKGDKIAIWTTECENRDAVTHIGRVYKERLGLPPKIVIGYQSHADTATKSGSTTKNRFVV
Sequence of eIF4E (P63073 whole entry): as above

Row | Structure (SMILES) | Kd [1] [nM] | EC50 [1] [nM] | effect of the N7 substituent on eIF4E binding (in words) [1] | further results
1 | Nc1nc(O)c2c(n1)n([C@@H]1O[C@H](COP(=O)(O)OP(=O)([O-])OP(=O)(O)OC[C@H]3O[C@@H](n4cnc5c(=O)[nH]c(N)nc54)[C@H](O)[C@@H]3O)[C@@H](O)[C@H]1O)c[n+]2Cc1ccc(C(F)(F)F)cc1 [1l, 4-CF3-Bn^7GpppG] | 293 ± 43 | – | – | –
2 | Cn1c[n+]([C@@H]2O[C@H](COP(=O)(O)OP(=O)([O-])OP(=O)(O)OC[C@H]3O[C@@H](n4cnc5c(=O)[nH]c(N)nc54)[C@H](O)[C@@H]3O)[C@@H](O)[C@H]2O)c2nc(N)[nH]c(=O)c21 [m^7GpppG, reference compound] | 229 ± 37 | 2700 ± 300 | – | Rel. Protein Expression ([2]; mRNA capped with the analog, Gaussia luciferase activity in A549 cells 72 h post-transfection, normalized to m^7GpppG RNA): 1.0; Kd [3]: 160 nM
3 | Nc1nc(O)c2c(n1)n([C@@H]1O[C@H](COP(=O)(O)OP(=O)([O-])OP(=O)(O)OC[C@H]3O[C@@H](n4cnc5c(=O)[nH]c(N)nc54)[C@H](O)[C@@H]3O)[C@@H](O)[C@H]1O)c[n+]2Cc1ccc(Cl)cc1 [1h, 4-Cl-Bn^7GpppG] | 221 ± 37 | 2600 | – | increase of protein production compared to ARCA ([2]; A549 cells, 72 h): 2.5 fold
4 | CO[C@@H]1[C@H](O)[C@@H](COP(=O)(O)OP(=O)([O-])OP(=O)(O)OC[C@H]2O[C@@H](n3cnc4c(=O)[nH]c(N)nc43)[C@H](O)[C@@H]2O)O[C@H]1n1c[n+](Cc2ccccc2)c2c(O)nc(N)nc21 [1q, Bn^7GmpppG] | 171 ± 25 | 2000 | twofold increase in cap-binding affinity | change of protein expression of ARCA analog compared to 2'-O-unmethylated counterpart (1q vs 1a, 1r vs 1h) ([2]; A549 cells, 72 h): additional twofold increase
5 | Nc1nc(O)c2c(n1)n([C@@H]1O[C@H](COP(=O)(O)OP(=O)([O-])OP(=O)(O)OC[C@H]3O[C@@H](n4cnc5c(=O)[nH]c(N)nc54)[C@H](O)[C@@H]3O)[C@@H](O)[C@H]1O)c[n+]2Cc1ccccc1 [1a, Bn^7GpppG] | 217 ± 36 | – | – | increase of protein production compared to m^7GpppG-capped mRNA ([2]; A549 cells, 72 h): over fivefold; Kd [3]: 107 nM; translation efficiency in vitro relative to m^7GpppG-capped mRNAs [4]: almost twofold higher
6 | Nc1nc(O)c2c(n1)n([C@@H]1O[C@H](COP(=O)(O)OP(=O)([O-])OP(=O)(O)OC[C@H]3O[C@@H](n4cnc5c(=O)[nH]c(N)nc54)[C@H](O)[C@@H]3O)[C@@H](O)[C@H]1O)c[n+]2Cc1ccc(F)c(F)c1 [1k, 3,4-di-F-Bn^7GpppG] | 489 ± 77 | 5700 | – | –
7 | CO[C@@H]1[C@H](O)[C@@H](COP(=O)(O)OP(=O)([O-])OP(=O)(O)OC[C@H]2O[C@@H](n3cnc4c(=O)[nH]c(N)nc43)[C@H](O)[C@@H]2O)O[C@H]1n1c[n+](Cc2ccc(Cl)cc2)c2c(O)nc(N)nc21 [1r, 4-Cl-Bn^7GmpppG] | 132 ± 20 | 1600 | twofold increase in cap-binding affinity | change of protein expression of ARCA analog compared to 2'-O-unmethylated counterpart (1q vs 1a, 1r vs 1h) ([2]; A549 cells, 72 h): decreased the protein expression by twofold
8 | Nc1nc(O)c2c(n1)n([C@@H]1O[C@H](COP(=O)(O)OP(=O)([O-])OP(=O)(O)OC[C@H]3O[C@@H](n4cnc5c(=O)[nH]c(N)nc54)[C@H](O)[C@@H]3O)[C@@H](O)[C@H]1O)c[n+]2Cc1ccc(F)cc1 [1g, 4-F-Bn^7GpppG] | 261 ± 54 | 3100 | – | –
9 | CC(C)c1ccc(C[n+]2cn([C@@H]3O[C@H](COP(=O)(O)OP(=O)([O-])OP(=O)(O)OC[C@H]4O[C@@H](n5cnc6c(=O)[nH]c(N)nc65)[C@H](O)[C@@H]4O)[C@@H](O)[C@H]3O)c3nc(N)nc(O)c32)cc1 [1e, 4-iPrBn^7GpppG] | 534 ± 100 | 6200 | KD increased more than double | –
10 | Nc1nc(O)c2c(n1)n([C@@H]1O[C@H](COP(=O)(O)OP(=O)([O-])OP(=O)(O)OC[C@H]3O[C@@H](n4cnc5c(=O)[nH]c(N)nc54)[C@H](O)[C@@H]3O)[C@@H](O)[C@H]1O)c[n+]2Cc1ccc([N+](=O)[O-])cc1 [1n, 4-NO2-Bn^7GpppG] | 367 ± 71 | 4300 | accepted by the protein | –
11 | Nc1nc(O)c2c(n1)n([C@@H]1O[C@H](COP(=O)(O)OP(=O)([O-])OP(=O)(O)OC[C@H]3O[C@@H](n4cnc5c(=O)[nH]c(N)nc54)[C@H](O)[C@@H]3O)[C@@H](O)[C@H]1O)c[n+]2Cc1ccc(Br)cc1 [1i, 4-Br-Bn^7GpppG] | 172 ± 26 | 2000 | – | –
12 | Cc1cccc(C[n+]2cn([C@@H]3O[C@H](COP(=O)(O)OP(=O)([O-])OP(=O)(O)OC[C@H]4O[C@@H](n5cnc6c(=O)[nH]c(N)nc65)[C@H](O)[C@@H]4O)[C@@H](O)[C@H]3O)c3nc(N)nc(O)c32)c1 [1c, 3-MeBn^7GpppG] | 319 ± 55 | 3700 | – | –

— paper PMC8623273, “Novel N7-Arylmethyl Substituted Dinucleotide mRNA 5′ cap Analogs: Synthesis and Evaluation as Modulators of Translation” (Pharmaceutics, 2021)
